Laboratory results published in US10660882B2, “Prophylactic or therapeutic agent for giant cell tumors occurring in bone and soft tissue or for chondrosarcoma” (NIPPON CHEMIPHAR CO., LTD., priority 2012, dated 2020).

Experiments:
GCT cultured cells [1] = assay: Cell proliferation of GCT cultured cells, Cell Counting Kit-8, absorbance at 450 nm; type: cell-based, human; details: GCT cultured cells case 1, case 2
Protocol: (§1) GCT cultured cells (case 1, patient with osteoclastoma in a distal part of the right femur; case 2, patient with osteoclastoma in a distal part of the right femur) were cultured on a 96-well culture plate, zaltoprofen was added to the cells at various concentrations (5, 10, 50, 100, and 200 μM), color development was attained with Cell Counting Kit-8 (CCK-8) (Dojindo) 24 hours thereafter, and absorbance was measured at 450 nm 3 hours thereafter (FIG. 1).
In the same manner as that of Example 1, the GOT cultured cells (case 1, case 2) were cultured, a non-steroidal anti-inflammatory agent (acetaminophen, indomethacin, or diclofenac) or troglitazone was added at various concentrations, and absorbance was measured at 450 nm (FIGS. 12 and 13).
(§2) In the same manner as that of Example 1, the GCT cultured cells (case 1, case 2), the cells derived from giant cell tumor of tendon sheath (GCT of tendon sheath), or the cells derived from pigmented villonodular synovitis (diffuse-type GCT) were cultured, and then pioglitazone, a thiazolidine derivative, was added at various concentrations, and absorbance was measured at 450 nm (FIG. 32).

GCT cultured cells [2] = assay: Tunel assay of GCT cultured cells; type: cell-based, human; details: case 1; 100 and 200 μM; 8 hours and 24 hours
Protocol: (§3) Further, the aforementioned GCT cultured cells of the case 1 were cultured on chamber cover slide glass, and zaltoprofen was added at different concentrations (100, and 200 μM) 24 hours afterward. Then, 8 hours and 24 hours afterward, the cells were fixed with 4% paraformaldehyde, staining with caspase 3 and Tunel assay were performed, and presence or absence of apoptosis was analyzed. Observation was performed with a fluorescence microscope (BZ-9000) of Keyence, and positive images for each concentration were quantitatively observed (FIGS. 2 to 5).

caspase 3 [3] = assay: Caspase 3 staining of GCT cultured cells; type: cell-based, human; details: case 1; 100 and 200 μM; 8 hours and 24 hours
Protocol: as §3

PPARγ [4] = assay: PPARγ immunostaining of GCT cultured cells; type: cell-based, human; details: case 1; 10, 50, 100, and 200 μM; 24 hours
Protocol: The GCT cultured cells of the aforementioned case 1 were cultured on chamber cover slide glass, and 24 hours thereafter, zaltoprofen was added at various concentrations (10, 50, 100, and 200 μM). After 24 hours, the cells were fixed with 4% paraformaldehyde, and staining of PPARγ was performed. Observation was performed with a fluorescence microscope (BZ-9000) of Keyence, and positive images for each concentration were quantitatively observed (FIGS. 6 and 7).

GCT cultured cells [5] = assay: Fat cell differentiation of GCT cultured cells, HCS LipidTOX Green Neutral Lipid Stain; type: cell-based, human; details: case 1; 10, 50, and 100 μM; fat cell differentiation-inducing medium 7 to 14 days
Protocol: (§4) It has been reported that PPARγ is a transcription factor indispensable for fat cell differentiation. Therefore, the GCT cultured cells of the aforementioned case 1 were cultured on chamber cover slide glass, and when they reached confluent, zaltoprofen was added to the cells at various concentrations (10, 50, and 100 μM). From 24 hours thereafter, the cells were cultured in a fat cell differentiation-inducing medium (STREMPRO Adipogenesis Differentiation Kit, Invitrogen) for 7 to 14 days, and differentiation into fat cells was analyzed with HCS LipidTOX Green Neutral Lipid Stain (Invitrogen) (FIGS. 8 and 9).

osteoclastoma (GCT) [6] = assay: Tunel assay of operational excision sample of GCT patient administered with zaltoprofen; type: in vivo, human; details: 3 tablets per day (80 mg) for about 28 days
Protocol: (§5) An operational excision sample of a person who had been administered with 3 tablets per day of the zaltoprofen tablets, Soleton Tablet 80 (generic name: zaltoprofen, 80 mg, Nippon Chemiphar) for about 28 days for pain due to the tumor, and then subjected to the operation, and an operational excision sample of a patient with osteoclastoma not administered with zaltoprofen as a control were subjected to caspase 3 staining and Tunel assay, and analyzed for the presence or absence of apoptosis. Observation was performed with a fluorescence microscope (BZ-9000) produced by Keyence (FIG. 10). As a result, almost no Tunel-positive cells and caspase 3-positive cells were observed among the cells derived from the GCT patient not administered with zaltoprofen, whilst Tunel-positive cells and caspase 3-positive cells were observed among the cells derived from the patient administered with zaltoprofen.

caspase 3 [7] = assay: Caspase 3 staining of operational excision sample of GCT patient administered with zaltoprofen; type: in vivo, human; details: 3 tablets per day (80 mg) for about 28 days
Protocol: as §5

PPARγ [8] = assay: PPARγ staining of operational excision sample of GCT patient administered with zaltoprofen; type: in vivo, human; details: 3 tablets per day (80 mg) for about 28 days
Protocol: (§6) An operational excision sample of a person who had been administered with 3 tablets per day of the zaltoprofen tablets, Soleton Tablet 80 (generic name: zaltoprofen, 80 mg, Nippon Chemiphar) for about 28 days for pain due to the tumor, and then subjected to the operation, and an operational excision sample of a patient with osteoclastoma not administered with zaltoprofen as a control were subjected to staining of PPARγ, and expression of PPARγ was analyzed. Observation was performed with a fluorescence microscope (BZ-9000) of Keyence (FIG. 11).

osteoclastoma (GCT) [9] = assay: Fat cell differentiation in operational excision sample of GCT patient administered with zaltoprofen; type: in vivo, human; details: 3 tablets per day (80 mg) for about 28 days
Protocol: as §6

PPARγ [10] = assay: Effect of PPARγ siRNA on GCT cultured cells after addition of drug, CCK-8; type: cell-based, human; details: 200 μM; 72 hours; GCT cultured cells case 1, case 2
Protocol: The cells (case 1, case 2) were cultured on a 96-well culture plate, allowed to react with PPARγ siRNA, negative control siRNA, or only with the transfection reagents (Thermo Scientific DharmaFECT, Thermo Scientific) for 48 hours, and further cultured in a usual culture medium for 48 hours. Then, 200 μM of zaltoprofen or 60 μM of troglitazone was added to the cells, 72 hours thereafter, color development was performed with Cell Counting Kit-8 (CCK-8, Dojindo), and 3 hours thereafter, absorbance was measured at 450 nm (FIGS. 14 and 15).

[11] = tested on: cultured cells of giant cell tumor of tendon sheath; assay: Cell proliferation of cultured cells of giant cell tumor of tendon sheath, CCK-8; type: cell-based, human; details: various concentrations
Protocol: as §1, §2

[12] = tested on: cultured cells of pigmented villonodular synovitis; assay: Cell proliferation of cultured cells of pigmented villonodular synovitis, CCK-8; type: cell-based, human; details: various concentrations
Protocol: as §1, §2

[13] = tested on: cultured cells of giant cell tumor of tendon sheath; assay: Tunel assay of cultured cells of giant cell tumor of tendon sheath; type: cell-based, human; details: 400 μM, compared with control
Protocol: as §3, with “5). […] Further, in the same manner as that of Example 1, the cultured cells of giant cell tumor of tendon sheath and the cultured cells of pigmented villonodular synovitis were subjected to staining with caspase 3 and Tunel assay, and presence or absence of apoptosis was analyzed (FIGS. 18 to 25). As a result, it was observed that the Tunel-positive ratio and caspase 3-positive ratio increased in the cells added with zaltoprofen at a concentration of 400 μM or troglitazone at a concentration of 2000 μM compared with those observed for the control.” for “5).”

[14] = tested on: cultured cells of pigmented villonodular synovitis; assay: Tunel assay of cultured cells of pigmented villonodular synovitis; type: cell-based, human; details: 400 μM, compared with control
Protocol: as §3, with “5). […] Further, in the same manner as that of Example 1, the cultured cells of giant cell tumor of tendon sheath and the cultured cells of pigmented villonodular synovitis were subjected to staining with caspase 3 and Tunel assay, and presence or absence of apoptosis was analyzed (FIGS. 18 to 25). As a result, it was observed that the Tunel-positive ratio and caspase 3-positive ratio increased in the cells added with zaltoprofen at a concentration of 400 μM or troglitazone at a concentration of 2000 μM compared with those observed for the control.” for “5).”

caspase 3 [15] = assay: Caspase 3 staining of cultured cells of giant cell tumor of tendon sheath; type: cell-based, human; details: 400 μM, compared with control
Protocol: as §3, with “5). […] Further, in the same manner as that of Example 1, the cultured cells of giant cell tumor of tendon sheath and the cultured cells of pigmented villonodular synovitis were subjected to staining with caspase 3 and Tunel assay, and presence or absence of apoptosis was analyzed (FIGS. 18 to 25). As a result, it was observed that the Tunel-positive ratio and caspase 3-positive ratio increased in the cells added with zaltoprofen at a concentration of 400 μM or troglitazone at a concentration of 2000 μM compared with those observed for the control.” for “5).”

caspase 3 [16] = assay: Caspase 3 staining of cultured cells of pigmented villonodular synovitis; type: cell-based, human; details: 400 μM, compared with control
Protocol: as §3, with “5). […] Further, in the same manner as that of Example 1, the cultured cells of giant cell tumor of tendon sheath and the cultured cells of pigmented villonodular synovitis were subjected to staining with caspase 3 and Tunel assay, and presence or absence of apoptosis was analyzed (FIGS. 18 to 25). As a result, it was observed that the Tunel-positive ratio and caspase 3-positive ratio increased in the cells added with zaltoprofen at a concentration of 400 μM or troglitazone at a concentration of 2000 μM compared with those observed for the control.” for “5).”

PPARγ [17] = assay: PPARγ immunostaining of cells derived from giant cell tumor of tendon sheath; type: cell-based, human; details: 400 μM
PPARγ [18] = assay: PPARγ immunostaining of cells derived from pigmented villonodular synovitis; type: cell-based, human; details: 400 μM
[19] = tested on: cells derived from giant cell tumor of tendon sheath; assay: Fat cell differentiation of cells derived from giant cell tumor of tendon sheath, lipid stain; type: cell-based, human; details: 400 μM, compared with control
Protocol: as §4
(§7) As described in Example 3, it has been reported that PPARγ is a transcription factor indispensable for fat cell differentiation. Therefore, zaltoprofen was added at a concentration of 400 μM to the cells derived from giant cell tumor of tendon sheath or the cells derived from pigmented villonodular synovitis, and differentiation into fat cells was analyzed (FIGS. 30 and 31). As a result, it was successfully observed that the positive images obtained with HCS LipidTOX Green Neutral Lipid Stain increased in the zaltoprofen-added cells compared with the control.

[20] = tested on: cells derived from pigmented villonodular synovitis; assay: Fat cell differentiation of cells derived from pigmented villonodular synovitis, lipid stain; type: cell-based, human; details: 400 μM, compared with control
Protocol: as §4, §7

osteoclastoma = assay: MRI evaluation of patient with recurrence of osteoclastoma in the pelvic part administered with zaltoprofen; type: in vivo, human
Protocol: (§8) Soleton Tablet 80 (generic name: zaltoprofen, 80 mg, Nippon Chemiphar) was administered to a patient with osteoclastoma, a patient with giant cell tumor of tendon sheath, or a patient with pigmented villonodular synovitis at a dose of 3 tablets per day (administered in morning, at noon, and in evening), and the tumor size was evaluated by MRI every several months.

[21] = tested on: pigmented villonodular synovitis; assay: MRI and symptom evaluation of patients with recurrence of pigmented villonodular synovitis in the right knee administered with zaltoprofen; type: in vivo, human; details: person, 3 tablets per day
Protocol: as §8

[22] = tested on: chondrosarcoma-derived cell line (H-EMC-SS); assay: Cell proliferation of chondrosarcoma-derived cell line, CCK-8; type: cell-based; details: various concentrations
caspase 3 [23] = assay: Caspase 3 staining of chondrosarcoma-derived cell line; type: cell-based; details: 200 μM zaltoprofen, compared with control
Protocol: as §3
Further, in the same manner as that of Example 1, the chondrosarcoma-derived cell line was subjected to caspase 3 staining, and presence or absence of apoptosis was analyzed (FIGS. 46 and 47). As a result, it was successfully observed that the caspase 3-positive ratio increased in the cells added with zaltoprofen at a concentration of 200 μM, troglitazone at a concentration of 100 μM, or pioglitazone at a concentration of 200 μM, compared with the control.

PPARγ [24] = assay: PPARγ immunostaining of chondrosarcoma-derived cell line; type: cell-based; details: 200 μM zaltoprofen

COc1ccc2c(c1)c(CC(=O)O)c(C)n2C(=O)c1ccc(Cl)cc1 [indomethacin]
cell proliferation (absorbance at 450 nm) (GCT cultured cells [1]; various concentrations): suppressed in a non-steroidal anti-inflammatory agent concentration-dependent manner

O=C(O)Cc1ccccc1Nc1c(Cl)cccc1Cl [diclofenac]
cell proliferation (absorbance at 450 nm) (GCT cultured cells [1]; various concentrations): suppressed in a non-steroidal anti-inflammatory agent concentration-dependent manner

CC(=O)Nc1ccc(O)cc1 [acetaminophen]
cell proliferation (absorbance at 450 nm) (GCT cultured cells [1]; various concentrations): suppressed in a non-steroidal anti-inflammatory agent concentration-dependent manner

CC(C(=O)O)c1ccc2c(c1)CC(=O)c1ccccc1S2 (stereo not drawn) [zaltoprofen]
cell proliferation (absorbance at 450 nm) (GCT cultured cells [1]; 5, 10, 50, 100, and 200 μM, 24 hours): concentration-dependent suppression of the cell proliferation | Tunel-positive ratio (GCT cultured cells [2]): concentration and administration time-dependent increases | caspase 3-positive ratio (caspase 3 [3]): concentration and administration time-dependent increases | expression of PPARγ (PPARγ-positive cells) (PPARγ [4]): increased in a zaltoprofen concentration-dependent manner | positive images obtained with HCS LipidTOX Green Neutral Lipid Stain (differentiation into fat cells) (GCT cultured cells [5]): increased in a zaltoprofen concentration-dependent manner | Tunel-positive cells (osteoclastoma (GCT) [6]): observed | caspase 3-positive cells (caspase 3 [7]): observed | PPARγ-expressing cells (PPARγ [8]): PPARγ-expressing cells were observed | fat cell differentiation (osteoclastoma (GCT) [9]): fat cell differentiation was observed | effect of the drug on cell proliferation in the PPARγ siRNA addition group (PPARγ [10]): significantly suppressed | cell proliferation (absorbance) [11]: suppressed in a zaltoprofen or troglitazone concentration-dependent manner | cell proliferation (absorbance) [12]: suppressed in a zaltoprofen or troglitazone concentration-dependent manner | Tunel-positive ratio [13]: increased | Tunel-positive ratio [14]: increased | caspase 3-positive ratio (caspase 3 [15]): increased | caspase 3-positive ratio (caspase 3 [16]): increased | expression of PPARγ (PPARγ-positive images) (PPARγ [17]): expression of PPARγ was successfully observed | expression of PPARγ (PPARγ-positive images) (PPARγ [18]): expression of PPARγ was successfully observed | positive images obtained with HCS LipidTOX Green Neutral Lipid Stain (differentiation into fat cells) [19]: increased | positive images obtained with HCS LipidTOX Green Neutral Lipid Stain (differentiation into fat cells) [20]: increased | MRI image of the pelvic part (arrows) (osteoclastoma; after four months of administration): tumor necrosis region | MRI image of the pelvic part (arrows) (osteoclastoma; after two months of administration): tumor necrosis region | MRI imaging effect ([21]; after three months): attenuation of the MRI imaging effect | tumor size evaluated by MRI ([21]; after two months): shrinkage of tumor | cell proliferation (absorbance) [22]: suppressed in a troglitazone, pioglitazone, or zaltoprofen concentration-dependent manner | caspase 3-positive ratio (caspase 3 [23]): increased | expression of PPARγ (PPARγ-positive images) (PPARγ [24]): expression of PPARγ was successfully observed
